Measurements as given in patent publication US10499642B2, “Isoxazoline-substituted benzamides and analogues as insecticides” (SYNGENTA PARTICIPATIONS AG, priority 2015, dated 2019).
Like-named read-outs stand apart in the source and are kept apart here.

Columns and labels:
Type in all cases: in vivo
Spodoptera littoralis = Spodoptera littoralis (Egyptian cotton leaf worm) cotton leaf disc test; details: foliar, 72 h, read-out: control (at least one of mortality, anti-feedant effect, and growth inhibition)
Procedure, shortened: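 Cotton leaf discs on agar were sprayed with aqueous dilutions of 10′000 ppm DMSO stocks, dried and infested with five L1 larvae. Mortality, anti-feedant effect and growth inhibition were scored against untreated samples 3 days after infestation. Control = any of these higher than untreated.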

Plutella xylostella = Plutella xylostella (diamond back moth) artificial diet test; details: 120 h, read-out: effect in at least one of the two categories (mortality or growth inhibition)
Procedure, shortened: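 Artificial diet treated with aqueous compound solutions made from DMSO stocks, dried, then infested with L2 larvae (10 to 15 per well). Mortality and growth inhibition scored versus untreated controls 5 days after infestation. Application rate 200 ppm.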

Diabrotica Balteata = test: Diabrotica balteata (corn root worm) maize sprout test; details: 96 h, read-out: effect in at least one of the two categories (mortality or growth inhibition)
Procedure, shortened: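 Maize sprouts on agar were sprayed with aqueous test solutions made from 10′000 ppm DMSO stocks, dried, then infested with 6 to 10 L2 larvae per well. Mortality and growth inhibition versus untreated samples were assessed 4 days after infestation; application rate 200 ppm.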

Thrips tabaci = Thrips tabaci (onion thrips) sunflower leaf disc test; details: foliar, 144 h
Procedure: Thrips tabaci (Onion Thrips):
Sunflower leaf discs were placed on agar in 24-well microtiter plates and sprayed with aqueous test solutions prepared from 10′000 ppm DMSO stock solutions. After drying the leaf discs were infested with a thrips population of mixed ages. The samples were assessed for mortality 6 days after infestation.

Tetranychus urticae = Tetranychus urticae (two-spotted spider mite) bean leaf disc test; details: foliar, 192 h
Procedure: Tetranychus urticae (Two-Spotted Spider Mite):
Bean leaf discs on agar in 24-well microtiter plates were sprayed with aqueous test solutions prepared from 10′000 ppm DMSO stock solutions. After drying the leaf discs were infested with a mite population of mixed ages. The samples were assessed for mortality on mixed population (mobile stages) 8 days after infestation.

Myzus persicae = Myzus persicae (green peach aphid) sunflower leaf disc test; details: foliar, 144 h
Procedure: Myzus persicae (Green Peach Aphid):
Sunflower leaf discs were placed on agar in a 24-well microtiter plate and sprayed with test solutions at an application rate of 200 ppm. After drying, the leaf discs were infested with an aphid population of mixed ages. After an incubation period of 6 days after treatment, samples were checked for mortality. The following compounds gave at least 80% mortality of Myzus persicae: […]

[1] = application rate 200 ppm, cotton leaf discs, L1 larvae, 3 days after infestation
[2] = application rate 200 ppm, artificial diet, L2 larvae, 5 days after infestation
[3] = application rate 200 ppm, maize sprouts, L2 larvae, 4 days after infestation
[4] = application rate 200 ppm, sunflower leaf discs, population of mixed ages, 6 days after infestation, read-out: mortality
[5] = application rate 200 ppm, bean leaf discs, mixed population (mobile stages), 8 days after infestation, read-out: mortality
[6] = application rate 200 ppm, sunflower leaf discs, population of mixed ages, 6 days after treatment, read-out: mortality

Cc1cc(C2=NO[C@@](c3cc(Cl)cc(Cl)c3)(C(F)(F)F)C2)ccc1C(=O)N[C@@H]1CC(OCC(F)(F)F)=NO1 (single isomer, unassigned) [Compound A156]
≥ 80%: percent control (mortality, anti-feedant effect or growth inhibition) at 200 ppm (Spodoptera littoralis) | percent effect (mortality or growth inhibition) at 200 ppm (Plutella xylostella) | percent effect (mortality or growth inhibition) at 200 ppm (Diabrotica Balteata) | mortality at 200 ppm (Thrips tabaci) | mortality at 200 ppm (Tetranychus urticae) | mortality at 200 ppm (Myzus persicae)

Cc1cc(C2=NO[C@@](c3cc(Cl)cc(Cl)c3)(C(F)(F)F)C2)ccc1C(=O)NC1CC(Br)=NO1 (stereo partly drawn) [Compound A055]
≥ 80%: percent control (mortality, anti-feedant effect or growth inhibition) at 200 ppm (Spodoptera littoralis) | percent effect (mortality or growth inhibition) at 200 ppm (Plutella xylostella) | percent effect (mortality or growth inhibition) at 200 ppm (Diabrotica Balteata) | mortality at 200 ppm (Thrips tabaci) | mortality at 200 ppm (Tetranychus urticae) | mortality at 200 ppm (Myzus persicae)

Cc1cc(C2=NO[C@@](c3cc(Cl)cc(C(F)(F)F)c3)(C(F)(F)F)C2)ccc1C(=O)N(C=O)C1CC(Cl)=NO1 (stereo partly drawn) [Compound A012, N-(3-chloro-4,5-dihydroisoxazol-5-yl)-4-[(5S)-5-[3-chloro-5-(trifluoromethyl)phenyl]-5-(trifluoromethyl)-4H-isoxazol-3-yl]-N-formyl-2-methyl-benzamide]
≥ 80%: percent control (mortality, anti-feedant effect or growth inhibition) at 200 ppm (Spodoptera littoralis) | percent effect (mortality or growth inhibition) at 200 ppm (Plutella xylostella) | percent effect (mortality or growth inhibition) at 200 ppm (Diabrotica Balteata) | mortality at 200 ppm (Thrips tabaci) | mortality at 200 ppm (Tetranychus urticae) | mortality at 200 ppm (Myzus persicae)

CCOC1=NOC(NC(=O)c2ccc(C3=NO[C@@](c4cc(Cl)c(Cl)c(Cl)c4)(C(F)(F)F)C3)cc2Cl)C1 (stereo partly drawn) [Compound A060, 2-chloro-N-(3-ethoxy-4,5-dihydroisoxazol-5-yl)-4-[(5S)-5-(3,4,5-trichlorophenyl)-5-(trifluoromethyl)-4H-isoxazol-3-yl]benzamide]
≥ 80%: percent control (mortality, anti-feedant effect or growth inhibition) at 200 ppm (Spodoptera littoralis) | percent effect (mortality or growth inhibition) at 200 ppm (Plutella xylostella) | percent effect (mortality or growth inhibition) at 200 ppm (Diabrotica Balteata) | mortality at 200 ppm (Thrips tabaci) | mortality at 200 ppm (Tetranychus urticae) | mortality at 200 ppm (Myzus persicae)

CC1=NOC(NC(=O)c2ccc(C3=NO[C@@](c4cc(Br)cc(C(F)(F)F)c4)(C(F)(F)F)C3)cc2C)C1 (stereo partly drawn) [Compound A029, 4-[(5S)-5-[3-bromo-5-(trifluoromethyl)phenyl]-5-(trifluoromethyl)-4H-isoxazol-3-yl]-2-methyl-N-(3-methyl-4,5-dihydroisoxazol-5-yl)benzamide]
≥ 80%: percent control (mortality, anti-feedant effect or growth inhibition) at 200 ppm (Spodoptera littoralis; [1]) | percent effect (mortality or growth inhibition) at 200 ppm (Plutella xylostella; [2]) | percent effect (mortality or growth inhibition) at 200 ppm (Diabrotica Balteata; [3]) | mortality at 200 ppm (Thrips tabaci; [4]) | mortality at 200 ppm (Tetranychus urticae; [5]) | mortality at 200 ppm (Myzus persicae; [6])

Cc1cc(C2=NO[C@@](c3cc(Cl)c(Cl)c(Cl)c3)(C(F)(F)F)C2)ccc1C(=O)NC1CC(OCc2ccncc2)=NO1 (stereo partly drawn) [Compound A124, 2-methyl-N-[3-(4-pyridylmethoxy)-4,5-dihydroisoxazol-5-yl]-4-[(5S)-5-(3,4,5-trichlorophenyl)-5-(trifluoromethyl)-4H-isoxazol-3-yl]benzamide]
≥ 80%: percent control (mortality, anti-feedant effect or growth inhibition) at 200 ppm (Spodoptera littoralis) | percent effect (mortality or growth inhibition) at 200 ppm (Plutella xylostella) | percent effect (mortality or growth inhibition) at 200 ppm (Diabrotica Balteata) | mortality at 200 ppm (Thrips tabaci) | mortality at 200 ppm (Tetranychus urticae) | mortality at 200 ppm (Myzus persicae)

CCC1=NOC(N(C=O)C(=O)c2ccc(C3=NO[C@@](c4cc(Cl)cc(Cl)c4)(C(F)(F)F)C3)cc2C)C1 (stereo partly drawn) [Compound A139]
≥ 80%: percent control (mortality, anti-feedant effect or growth inhibition) at 200 ppm (Spodoptera littoralis) | percent effect (mortality or growth inhibition) at 200 ppm (Plutella xylostella) | percent effect (mortality or growth inhibition) at 200 ppm (Diabrotica Balteata) | mortality at 200 ppm (Thrips tabaci) | mortality at 200 ppm (Tetranychus urticae) | mortality at 200 ppm (Myzus persicae)

COCCOC1=NOC(NC(=O)c2ccc(C3=NO[C@@](c4cc(Cl)c(F)c(Cl)c4)(C(F)(F)F)C3)cc2C)C1 (stereo partly drawn) [Compound A076]
≥ 80%: percent control (mortality, anti-feedant effect or growth inhibition) at 200 ppm (Spodoptera littoralis) | percent effect (mortality or growth inhibition) at 200 ppm (Plutella xylostella) | percent effect (mortality or growth inhibition) at 200 ppm (Diabrotica Balteata) | mortality at 200 ppm (Thrips tabaci) | mortality at 200 ppm (Tetranychus urticae) | mortality at 200 ppm (Myzus persicae)

Cc1cc(C2=NO[C@@](c3cc(Cl)c(F)c(Cl)c3)(C(F)(F)F)C2)ccc1C(=O)NC1CC(OC(C)C)=NO1 (stereo partly drawn) [Compound A077]
≥ 80%: percent control (mortality, anti-feedant effect or growth inhibition) at 200 ppm (Spodoptera littoralis) | percent effect (mortality or growth inhibition) at 200 ppm (Plutella xylostella) | percent effect (mortality or growth inhibition) at 200 ppm (Diabrotica Balteata) | mortality at 200 ppm (Thrips tabaci) | mortality at 200 ppm (Tetranychus urticae) | mortality at 200 ppm (Myzus persicae)

CC1=NOC(NC(=O)c2ccc(C3=NO[C@@](c4cc(Cl)c(F)c(Cl)c4)(C(F)(F)F)C3)cc2C)C1 (stereo partly drawn) [Compound A009, 4-[(5S)-5-(3,5-dichloro-4-fluoro-phenyl)-5-(trifluoromethyl)-4H-isoxazol-3-yl]-2-methyl-N-(3-methyl-4,5-dihydroisoxazol-5-yl)benzamide]
≥ 80%: percent control (mortality, anti-feedant effect or growth inhibition) at 200 ppm (Spodoptera littoralis) | percent effect (mortality or growth inhibition) at 200 ppm (Plutella xylostella) | percent effect (mortality or growth inhibition) at 200 ppm (Diabrotica Balteata) | mortality at 200 ppm (Thrips tabaci) | mortality at 200 ppm (Tetranychus urticae) | mortality at 200 ppm (Myzus persicae)

CC1=NOC(N(C=O)C(=O)c2ccc(C3=NO[C@@](c4cc(Cl)c(Cl)c(Cl)c4)(C(F)(F)F)C3)cc2Br)C1 (stereo partly drawn) [Compound A035, 2-bromo-N-formyl-N-(3-methyl-4,5-dihydroisoxazol-5-yl)-4-[(5S)-5-(3,4,5-trichlorophenyl)-5-(trifluoromethyl)-4H-isoxazol-3-yl]benzamide]
≥ 80%: percent control (mortality, anti-feedant effect or growth inhibition) at 200 ppm (Spodoptera littoralis) | percent effect (mortality or growth inhibition) at 200 ppm (Plutella xylostella) | percent effect (mortality or growth inhibition) at 200 ppm (Diabrotica Balteata) | mortality at 200 ppm (Thrips tabaci) | mortality at 200 ppm (Tetranychus urticae) | mortality at 200 ppm (Myzus persicae)

CC1=NOC(N(C=O)C(=O)c2ccc(C3=NO[C@@](c4cc(Cl)c(F)c(Cl)c4)(C(F)(F)F)C3)cc2Cl)C1 (stereo partly drawn) [Compound A033, 2-chloro-4-[(5S)-5-(3,5-dichloro-4-fluoro-phenyl)-5-(trifluoromethyl)-4H-isoxazol-3-yl]-N-formyl-N-(3-methyl-4,5-dihydroisoxazol-5-yl)benzamide]
≥ 80%: percent control (mortality, anti-feedant effect or growth inhibition) at 200 ppm (Spodoptera littoralis) | percent effect (mortality or growth inhibition) at 200 ppm (Plutella xylostella) | percent effect (mortality or growth inhibition) at 200 ppm (Diabrotica Balteata) | mortality at 200 ppm (Thrips tabaci) | mortality at 200 ppm (Tetranychus urticae) | mortality at 200 ppm (Myzus persicae)

CC1=NOC(N(C=O)C(=O)c2ccc(C3=NO[C@@](c4cc(Cl)c(Cl)c(Cl)c4)(C(F)(F)F)C3)cc2Cl)C1 (stereo partly drawn) [Compound A024, 2-chloro-N-formyl-N-(3-methyl-4,5-dihydroisoxazol-5-yl)-4-[(5S)-5-(3,4,5-trichlorophenyl)-5-(trifluoromethyl)-4H-isoxazol-3-yl]benzamide]
≥ 80%: percent control (mortality, anti-feedant effect or growth inhibition) at 200 ppm (Spodoptera littoralis) | percent effect (mortality or growth inhibition) at 200 ppm (Plutella xylostella) | percent effect (mortality or growth inhibition) at 200 ppm (Diabrotica Balteata) | mortality at 200 ppm (Thrips tabaci) | mortality at 200 ppm (Tetranychus urticae) | mortality at 200 ppm (Myzus persicae)

Cc1cc(C2=NO[C@@](c3cccc(C(F)(F)F)c3)(C(F)(F)F)C2)ccc1C(=O)NC1CC(Br)=NO1 (stereo partly drawn) [Compound A058]
≥ 80%: percent control (mortality, anti-feedant effect or growth inhibition) at 200 ppm (Spodoptera littoralis; [1]) | percent effect (mortality or growth inhibition) at 200 ppm (Plutella xylostella; [2]) | percent effect (mortality or growth inhibition) at 200 ppm (Diabrotica Balteata; [3]) | mortality at 200 ppm (Thrips tabaci; [4]) | mortality at 200 ppm (Tetranychus urticae; [5]) | mortality at 200 ppm (Myzus persicae; [6])
